These results are taken from patent US20140296146A1, “Thermostable Inhibitors of Activation of the Blood Clotting System Through Contact with Foreign Surfaces” (Synapse B.V., priority 2011, published 2014).

Read-outs that look alike come from different tables or passages of the source. Where a SMILES comes first, the peptide text is derived from it. Bridges are numbered along the chain shown (N, C = ends).

Data set [1] has as its target T1, h-FXIIa (Homo sapiens, UniProt P00748).
T1 construct: purchased Enzyme Research Laboratories FXIIa 1212A
T1 sequence (P00748 373-615 limits assumed): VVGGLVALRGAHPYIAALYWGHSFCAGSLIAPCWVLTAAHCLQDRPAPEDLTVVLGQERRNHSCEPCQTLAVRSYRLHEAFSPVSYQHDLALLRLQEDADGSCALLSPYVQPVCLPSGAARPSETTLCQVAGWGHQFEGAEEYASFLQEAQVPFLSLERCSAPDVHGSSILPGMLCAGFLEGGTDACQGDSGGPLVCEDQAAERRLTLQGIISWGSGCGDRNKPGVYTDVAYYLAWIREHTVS
T1 sequence (P00748 20-372 partner limits assumed): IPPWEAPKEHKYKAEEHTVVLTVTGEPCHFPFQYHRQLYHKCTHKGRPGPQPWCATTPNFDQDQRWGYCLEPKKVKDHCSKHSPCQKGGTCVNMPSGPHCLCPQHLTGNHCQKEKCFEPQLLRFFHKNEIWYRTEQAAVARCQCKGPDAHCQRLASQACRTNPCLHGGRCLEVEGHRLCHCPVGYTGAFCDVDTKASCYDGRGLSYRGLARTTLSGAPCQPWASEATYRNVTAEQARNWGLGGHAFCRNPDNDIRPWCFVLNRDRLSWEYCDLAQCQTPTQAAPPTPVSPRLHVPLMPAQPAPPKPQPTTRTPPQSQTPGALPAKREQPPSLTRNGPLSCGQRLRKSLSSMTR
Put plainly: Effect of inhibitors on hydrolysis of S2302 by h-FXIIa. It is filed as biochemical. As for the experimental part:
Materials • S2302 From Chromogenic, lot # N0398718 SEQ0860, exp. date 2012-07. Water added on 7 Oct. […] On 3 Aug. […] Product code FXIIa 1212A, lot #FXIIa 2520PL. Bottle with 0.5 mg was reconstituted with 370 μl pure water. […] Buffer 4 mM NaAc, 150 mM NaCl (pH 5.3). Preparation was divided into 20 μl amounts and frozen at −80° C. • Hepes735 140 mM NaCl, 20 mM Hepes, 0.02% NaN3 (pH 7.35). • BSA5 Hepes735+5 mg/ml BSA. • CTI Prepared on 17 Dec. 2004, 0.141 mg/ml, i.e. 0.141/12028=11.7*10^−6 M (11.7 μM). One portion was thawed and divided into 3 parts. Part 1 was frozen at −80° C.; part 2 was kept at RT; and part 3 was incubated 30 min at 95° C. and then kept at RT.
Stock FXIIa was diluted 700× in BSA5. The inhibitor was diluted in BSA5 as indicated. Wells contained 70 μl diluted FXIIa (5 nM final), 70 μl inhibitor and 20 μl S2302 (475 or 462.5 μM final). The reaction was started after 5 min heating on the heating plate with S2302. Filters 405 nm and 490 nm reference. Found mΔA/min was multiplied by 2.14 to get the figure for a 1 cm path.
The residual activity (V) was fitted against the PTI concentration with equation:
(§1) V=(E+(sqrt(Ê2+2*E*(Ki−I)+Î2+2*I*Ki+Kî2)−E−I−Ki)/2)*kcat*S/(Km+S)
(§2) in which E=[FXIIa], Ki is the dissociation constant, I=[Inhibitor], kcat and Km are Michaelis constants and S=[S2302].

Data set [2] deals with T1, h-FXIIa. Put plainly: Stability of CTI, PTI and TICA at RT and at 95° C., read as inhibition of h-FXIIa. Format: physicochemical. As for the experimental part:
Materials • S2302 From Chromogenic, lot # N0398718 SEQ0860, exp. date 2012-07. Water added on 7 Oct. […] On 3 Aug. […] Product code FXIIa 1212A, lot #FXIIa 2520PL. Bottle with 0.5 mg was reconstituted with 370 μl pure water. […] Buffer 4 mM NaAc, 150 mM NaCl (pH 5.3). Preparation was divided into 20 μl amounts and frozen at −80° C. • Hepes735 140 mM NaCl, 20 mM Hepes, 0.02% NaN3 (pH 7.35). • BSA5 Hepes735+5 mg/ml BSA. • CTI Prepared on 17 Dec. 2004, 0.141 mg/ml, i.e. 0.141/12028=11.7*10^−6 M (11.7 μM). One portion was thawed and divided into 3 parts. […]
Stock FXIIa was diluted 700× in BSA5. The inhibitor was diluted in BSA5 as indicated. Wells contained 70 μl diluted FXIIa (5 nM final), 70 μl inhibitor and 20 μl S2302 (475 or 462.5 μM final). The reaction was started after 5 min heating on the heating plate with S2302. Filters 405 nm and 490 nm reference. Found ΔmA/min was multiplied by 2.14 to get the figure for a 1 cm path.
The residual activity (V) was fitted against the inhibitor concentration with equation:
as §1, §2
To calculate the concentration of I the equation I=x·(x−E−Ki)/(x−E) was used. In this equation is I the calculated inhibitor concentration, x=the residual activity of FXIIa (free FXIIa), E the total FXIIa concentration (=9.33 nM), and Ki the dissociation or inhibitor constant.

The mark [3] stands for this setting: Ki, Table 2, inhibitory activity of different polypeptides.
The mark [4] stands for this setting: ki F.XIIa (ng/ml), Before heating.

At h-FXIIa [1], `CC[C@H](C)[C@@H]1NC(=O)[C@H](CCCNC(=N)N)NC(=O)[C@@H]2CCCN2C(=O)[C@@H](NC(=O)[C@@H](NC(=O)[C@@H](N)CCCNC(=N)N)C(C)C)CSSC[C@@H]2NC(=O)[C@H](CCC(=O)O)NC(=O)[C@H](C)NC(=O)[C@H](CC(C)C)NC(=O)[C@@H]3CSSC[C@@H](C(=O)NCC(=O)N[C@@H](C)C(=O)N[C@@H](C)C(=O)N[C@@H](C)C(=O)O)NC(=O)[C@H](Cc4ccc(O)cc4)NC(=O)CNC(=O)[C@H](Cc4c[nH]cn4)NC(=O)[C@H](CCC(=O)O)NC(=O)[C@H](CC(C)C)NC(=O)[C@H](CSSC[C@H](NC(=O)[C@H](CCCCN)NC(=O)[C@H](CCSC)NC(=O)[C@H](CC(C)C)NC1=O)C(=O)N[C@@H](CCCCN)C(=O)N[C@@H](CCCCN)C(=O)N[C@@H](CC(=O)O)C(=O)N[C@@H](CO)C(=O)N[C@@H](CC(=O)O)C(=O)N3)NC(=O)[C@H](C(C)C)NC2=O` [TICA1-AAA] (H-RVCPRILMKCKKDSDCLAECVCLEHGYCGAAA-OH; disulfide 3-20, 10-22, 16-28) showed a Ki of 377 nM. This lies in the sub-micromolar range.
As to `CC[C@H](C)[C@@H]1NC(=O)[C@H](CCCNC(=N)N)NC(=O)[C@@H]2CCCN2C(=O)[C@@H](NC(=O)[C@@H](NC(=O)[C@H](CCCNC(=N)N)NC(=O)[C@H](CCC(=O)O)NC(=O)[C@H](CCC(=O)O)NC(=O)[C@@H](N)Cc2c[nH]cn2)C(C)C)CSSC[C@@H]2NC(=O)[C@H](CCC(=O)O)NC(=O)[C@H](C)NC(=O)[C@H](CC(C)C)NC(=O)[C@@H]3CSSC[C@@H](C(=O)NCC(=O)O)NC(=O)[C@H](Cc4ccc(O)cc4)NC(=O)CNC(=O)[C@H](Cc4c[nH]cn4)NC(=O)[C@H](CCC(=O)O)NC(=O)[C@H](CC(C)C)NC(=O)[C@H](CSSC[C@H](NC(=O)[C@H](CCCCN)NC(=O)[C@H](CCSC)NC(=O)[C@H](CC(C)C)NC1=O)C(=O)N[C@@H](CCCCN)C(=O)N[C@@H](CCCCN)C(=O)N[C@@H](CC(=O)O)C(=O)N[C@@H](CO)C(=O)N[C@@H](CC(=O)O)C(=O)N3)NC(=O)[C@H](C(C)C)NC2=O` [TICA3] (H-HEERVCPRILMKCKKDSDCLAECVCLEHGYCG-OH; disulfide 6-23, 13-25, 19-31 (inferred); N-terminus and C-terminus assumed), the “Res. Act. (%)” value on h-FXIIa [2] (inhibitor 30 min 95° C.) came out at 103%; at h-FXIIa [2] (inhibitor at RT during 72 hrs) it was 101%; at h-FXIIa [2] (inhibitor kept at −80° C.), 100%. The inhibition constant (Ki) is 3090 nM at h-FXIIa [1] (setting [3]) and 2760 nM on h-FXIIa [1] (setting [4]).
In turn, `CC[C@H](C)[C@@H]1NC(=O)[C@H](CCCNC(=N)N)NC(=O)[C@@H]2CCCN2C(=O)[C@@H](NC(=O)[C@@H](NC(=O)[C@H](CCCNC(=N)N)NC(=O)[C@H](C)NC(=O)[C@H](C)NC(=O)[C@H](C)N)C(C)C)CSSC[C@@H]2NC(=O)[C@H](CCC(=O)O)NC(=O)[C@H](C)NC(=O)[C@H](CC(C)C)NC(=O)[C@@H]3CSSC[C@@H](C(=O)NCC(=O)O)NC(=O)[C@H](Cc4ccc(O)cc4)NC(=O)CNC(=O)[C@H](Cc4c[nH]cn4)NC(=O)[C@H](CCC(=O)O)NC(=O)[C@H](CC(C)C)NC(=O)[C@H](CSSC[C@H](NC(=O)[C@H](CCCCN)NC(=O)[C@H](CCSC)NC(=O)[C@H](CC(C)C)NC1=O)C(=O)N[C@@H](CCCCN)C(=O)N[C@@H](CCCCN)C(=O)N[C@@H](CC(=O)O)C(=O)N[C@@H](CO)C(=O)N[C@@H](CC(=O)O)C(=O)N3)NC(=O)[C@H](C(C)C)NC2=O` [AAA-TICA1] (H-AAARVCPRILMKCKKDSDCLAECVCLEHGYCG-OH; disulfide 6-23, 13-25, 19-31) returned an inhibition constant (Ki) on h-FXIIa [1] of 104 nM.
Consider `CC[C@H](C)[C@@H]1NC(=O)[C@@H]2CSSC[C@H](NC(=O)[C@@H](NC(=O)[C@H](CCCNC(=N)N)NC(=O)[C@H](CCC(=O)O)NC(=O)[C@H](CCC(=O)O)NC(=O)[C@@H](N)Cc3c[nH]cn3)C(C)C)C(=O)N3CCC[C@H]3C(=O)N[C@@H](CCCCN)C(=O)N[C@@H]([C@@H](C)CC)C(=O)N[C@@H](CC(C)C)C(=O)N[C@@H](CCSC)C(=O)N[C@@H](CCC(=O)O)C(=O)N[C@H]3CSSC[C@H](NC1=O)C(=O)N[C@@H](CC(C)C)C(=O)N[C@@H](CCC(=O)O)C(=O)N[C@@H](Cc1c[nH]cn1)C(=O)NCC(=O)N[C@@H](Cc1ccc(O)cc1)C(=O)N[C@H](C(=O)NCC(=O)O)CSSC[C@H](NC(=O)[C@H](CC(=O)O)NC(=O)[C@H](CO)NC(=O)[C@H](CC(=O)O)NC(=O)[C@H](CCCCN)NC(=O)[C@H](CCCCN)NC3=O)C(=O)N[C@@H](CC(C)C)C(=O)N[C@@H](C)C(=O)N[C@@H](CCC(=O)O)C(=O)N2` [TICA5] (H-HEERVCPKILMECKKDSDCLAECICLEHGYCG-OH; disulfide 6-23, 13-25, 19-31 (inferred); N-terminus and C-terminus assumed), for which the figures for the “Res. Act. (%)” value on h-FXIIa [2] (inhibitor 30 min 95° C.), on h-FXIIa [2] (inhibitor at RT during 72 hrs) and on h-FXIIa [2] (inhibitor kept at −80° C.) were 105%, 96% and 100%, respectively. Further, the values for the Ki at h-FXIIa [1] (setting [3]) and at h-FXIIa [1] (setting [4]) were 171000 nM and 152000 nM, respectively.
